# Laboratory results: patent US11531207B2, “Devices, apparatus and method for providing photostimulation and imaging of structures” (The Trustees of Columbia University in the City of New York, priority 2008, dated 2022)
# Tested on: glia
# Assay: dual labeling of cortical slices with mag-Indo-1AM and sulforhodamine (neurons vs glia)
# Assay type: cell-based, mice
# Details: 145/2555; n=4 slices; neocortical slices
# Description: FIGS. 9(a)-9(d) are exemplary images mag-Indo-1-AM loads mostly neurons in which slices are simultaneously loaded with mag-Indo1-AM and Sulforhodamine 101 (e.g., SR101, 20 μM) and imaged at their respective exemplary wavelengths;
# (See A. Nimmerjahn, F. Kirchhoff, J. N. Kerr et al., Nat Methods 1 (1), 31 (2004)). For example, 5.7±1.56% (145/2555; n=4 slices) of mag-Indo-1AM loaded cells can also be loaded with sulforhodamine, and only 8.1 t 2.59% (145/1786, n=4 slices) of sulforhodamine-loaded cells can also be loaded with mag-Indo-1AM.
# Coronal neocortical slices can be prepared from, e.g., P12-15 C57/BL6 mice or somatostatin-GFP mice (see A. A. Oliva, Jr., M. Jiang, T. Lam et al., J Neurosci 20 (9), 3354 (2000)) (e.g., Jackson Laboratory, Bar Harbor, Me.) with a vibratome (e.g., VT1000S; Leica, Nussloch, Germany). 300 μm thick slices can be cut in ice-cold oxygenated modified ACSF that can include 1 mM CaCl2 and 3 mM MgSO4, in which NaCl can be replaced by an equimolar concentration of sucrose (in mM): 27 NaHCO3, 1.5 NaH2PO4, 222 Sucrose, 2.6 KCl. Slices can then be placed in oxygenated standard ACSF at 37° C. for 30 min. For AM-loading, slices can be deposited onto the bottom of a small Petri dish (35×10 mm) filled with 2 ml of ACSF, ventilated with 95% O2/5% CO2 and placed in a slide warmer at 37° C. (Fisher Scientific, Waltham Mass.). […]
substance,measurement,value
mag-Indo-1AM,mag-Indo-1AM loaded cells also loaded with sulforhodamine,5.7±1.56%
